Earlier results in PubChem BioAssay AID1259409 (Chemical Carcinogenesis Research Information System (CCRIS), 2018).

Tested on: rodent chemically induced tumor inhibition, incidence and multiplicity
Experiment: CCRIS tumor inhibitor studies
Settings: Route [Inhibitor]: ORAL

Compound: Cc1c(C)c2c(c(C)c1O)CC[C@@](C)(CCC[C@H](C)CCC[C@H](C)CCCC(C)C)O2
- outcome (Carcinogen: N-BIS(2-HYDROXYPROPYL)NITROSAMINE, 53609-64-6, Dose [Inhibitor]: 0, 1% IN DIET FOR 30 WK BEGINNING POST CARCINOGEN TREATMENT (STUDY DURATION: 32 WK), Species: RAT, Strain/Sex: F344/MALE, Target Tissue: Type of Lesion: LUNG: ADENOMA, Dose [Carcinogen]: 0.1% IN DRINKING WATER FOR 2 WK, Promoter: NONE USED): 100%, 100%, 0, not significant
- tumour outcome (control, treated, inhibition, significance) (Carcinogen: N-BIS(2-HYDROXYPROPYL)NITROSAMINE, 53609-64-6, Dose [Inhibitor]: 0, 1% IN DIET FOR 30 WK BEGINNING POST CARCINOGEN TREATMENT (STUDY DURATION: 32 WK), Species: RAT, Strain/Sex: F344/MALE, Target Tissue: Type of Lesion: THYROID: ADENOMA, Dose [Carcinogen]: 0.1% IN DRINKING WATER FOR 2 WK, Promoter: NONE USED): 5%, 10%, -100%, not calculated
- tumour outcome (control, treated, inhibition, significance) (Carcinogen: N-BIS(2-HYDROXYPROPYL)NITROSAMINE, 53609-64-6, Dose [Inhibitor]: 0, 1% IN DIET FOR 30 WK BEGINNING POST CARCINOGEN TREATMENT (STUDY DURATION: 32 WK), Species: RAT, Strain/Sex: F344/MALE, Target Tissue: Type of Lesion: THYROID: CARCINOMA, Dose [Carcinogen]: 0.1% IN DRINKING WATER FOR 2 WK, Promoter: NONE USED): 20%, 10%, 50%, not calculated
- tumour outcome (control, treated, inhibition, significance) (Carcinogen: N-BIS(2-HYDROXYPROPYL)NITROSAMINE, 53609-64-6, Dose [Inhibitor]: 0, 1% IN DIET FOR 30 WK BEGINNING POST CARCINOGEN TREATMENT (STUDY DURATION: 32 WK, Species: RAT, Strain/Sex: F344/MALE, Target Tissue: Type of Lesion: LUNG: CARCINOMA, Dose [Carcinogen]: 0.1% IN DRINKING WATER FOR 2 WK, Promoter: NONE USED): 45%, 10%, 78%, p<0.05
- tumour outcome (control, treated, inhibition, significance) (Carcinogen: N-METHYL-N'-NITRO-N-NITROSOGUANIDINE, 70-25-7, N-ETHYL-N-HYDROXYETHYLNITROSAMINE, 13147-25-6, N-METHYLBENZYLNITROSAM, Carcinogen: N-METHYL-N'-NITRO-N-NITROSOGUANIDINE, 70-25-7, N-ETHYL-N-HYDROXYETHYLNITROSAMINE, 13147-25-6, N-METHYLBENZYLNITROSAM, Dose [Inhibitor]: 0, 1% IN DIET FOR 36 WK (STUDY DURATION: 36 WK), Species: RAT, Strain/Sex: F344/MALE, Target Tissue: Type of Lesion: KIDNEY: RENAL CELL TUMOR, Dose [Carcinogen]: 100 MG/KG BW MNNG ONCE, 750 MG/KG BW EHEN ONCE, 0.5 MG/KG BW MBN TWICE, 40 MG/KG BW DMH 4 TIMES, 0.05% DBN IN DRINKING W, Promoter: NONE USED): 8/18 (44%), 5/18 (28%), 36%, not calculated
- tumour outcome (control, treated, inhibition, significance) (Carcinogen: N-METHYL-N-NITROSOUREA, 684-93-5, Dose [Inhibitor]: 0, 3.349 UMOL/G IN DIET FOR DURATION OF STUDY (STUDY DURATION: 19 WK), Species: RAT, Strain/Sex: SPRAGUE-DAWLEY/FEMALE, Target Tissue: Type of Lesion: MAMMARY GLAND: TUMOR, Dose [Carcinogen]: 30 MG/KG IN ACIDIFIED SALINE ONCE, Promoter: NONE USED): 60%, 50%, 17%, not significant
- tumour outcome (control, treated, inhibition, significance) (Carcinogen: N-METHYLBENZYLNITROSAMINE, 937-40-6, Dose [Inhibitor]: 30, 142 IU IN BASAL DIET BEGINNING 1 WK POST CARCINOGEN TREATMENT (STUDY DURATION: 26 WK), Species: MOUSE, Strain/Sex: C57BL/FEMALE, Target Tissue: Type of Lesion: ESOPHAGUS: TUMORS, Dose [Carcinogen]: 0.2 MG/KG BW IN CORN OIL 3/WK FOR 3 WK, Promoter: NONE USED): 6/15 (40%), 3/15 (20%), 50%, p<0.05
- tumour outcome (control, treated, inhibition, significance) (Carcinogen: N-METHYLBENZYLNITROSAMINE, 937-40-6, Dose [Inhibitor]: 30, 142 IU IN BASAL DIET BEGINNING 1 WK POST CARCINOGEN TREATMENT TO MICE INFECTED WITH LP-BM5 MURINE RETROVIRUS (STUDY, Species: MOUSE, Strain/Sex: C57BL/FEMALE, Target Tissue: Type of Lesion: ESOPHAGUS: TUMORS, Dose [Carcinogen]: 0.2 MG/KG BW IN CORN OIL 3/WK FOR 3 WK, Promoter: NONE USED): 12/15 (80%), 11/16 (69%), 14%, not significant
- tumour outcome (control, treated, inhibition, significance) (Carcinogen: N-NITROSOMETHYLBENZYLAMINE, 937-40-6, Dose [Inhibitor]: 20, 142 MG/KG DIET BEGINNING POST CARCINOGEN TREATMENT AND CONTINUING FOR DURATION OF STUDY (STUDY DURATION: 23 WK), Species: MOUSE, Strain/Sex: C57BL/FEMALE, Target Tissue: Type of Lesion: ESOPHAGUS: TUMOR, Dose [Carcinogen]: 0.2 MG/KG BW IN CORN OIL 3/WK FOR 3 WK, Promoter: ETHANOL, 64-17-5): 10/17 (59%), 6/16 (38%), 36%, p<0.05
- tumour outcome (control, treated, inhibition, significance) (Carcinogen: NONE USED, Dose [Inhibitor]: 25.5, 550.9 MG/KG IN DIET FOR 40 WK (STUDY DURATION: 40 WK), Species: MOUSE, Strain/Sex: STRAIN-A/MALE, Target Tissue: Type of Lesion: LUNG: TUMOR, Promoter: NONE USED): 8/15 (53%), 4/15 (27%), 49%, not significant
- tumour outcome (control, treated, inhibition, significance) (Carcinogen: URETHANE, 51-79-6, Dose [Inhibitor]: 25, 500 MG/KG IN DIET FOR THE DURATION OF STUDY (STUDY DURATION: 26 WK), Species: MOUSE, Strain/Sex: DDY/MALE, Target Tissue: Type of Lesion: LUNG: TUMOR, Dose [Carcinogen]: 750 MG/KG BW ONCE, Promoter: NONE USED): 100%, 80%, 20%, not calculated
